Assay results taken from PMC5663708, “Novel Benzylidene Thiazolidinedione Derivatives as Partial PPARγ Agonists and their Antidiabetic Effects on Type 2 Diabetes” (Scientific Reports, 2017).

Legend:
[1] = test system: NIH/3T3 mouse embryonic fibroblast cells; assay: XTT cytotoxicity assay on NIH/3T3 cells; details: Mus musculus, NIH3T3, 24 h
Experimental: XTT is reduced to soluble formazan by this enzyme and formazan is quantified and directly proportional to the number of viable cells. […] NIH/3T3 cells were seeded at 1 × 10^4 cells into each well of 96-well plates. […] The XTT assay (Xenometrix, Allschwil, Switzerland) was performed according to the manufacturer’s instructions, after 24 h incubation with the compounds. The absorbance was determined after 2 h incubation at 480 nm with a reference wavelength of 680 nm using a microplate reader (BioTek, USA). […] The stock solutions of the compounds were prepared in DMSO and further dilutions were made with fresh culture medium. The final DMSO concentration was under 0.1%. Rosiglitazone and Pioglitazone were used as positive controls. All data were obtained from 3 independent experiments in quadruplicates.

human PPARγ (hPPARγ) = target: T1, human PPARγ (hPPARγ) (Homo sapiens, UniProt P37231); design: method as in earlier work; details: PPARγ activity of metaglidasen; cited from earlier work
T1 construct: expressed in transfected cells; host or cells: HepG2 (human hepatoblastoma), transient calcium phosphate transfection
T1 sequence (P37231 238-503 limits assumed): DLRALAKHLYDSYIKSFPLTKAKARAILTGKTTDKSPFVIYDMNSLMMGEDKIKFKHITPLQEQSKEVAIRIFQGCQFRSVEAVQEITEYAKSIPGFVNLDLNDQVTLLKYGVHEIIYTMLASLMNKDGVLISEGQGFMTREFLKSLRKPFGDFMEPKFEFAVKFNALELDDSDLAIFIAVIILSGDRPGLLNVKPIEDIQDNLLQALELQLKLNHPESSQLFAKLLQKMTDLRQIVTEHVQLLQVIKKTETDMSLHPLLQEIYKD

[2] = test system: STZ-NA-induced diabetic rats; assay: Antidiabetic activity in STZ-NA-induced type 2 diabetic rats
Experimental: The test dose was fixed based on the predicted LD50 value. […] Diabetic rats were orally treated with the test compounds at a dose of 36 mg/kg body weight for a period of 15 days. Fasting blood glucose of control, diabetic-untreated and diabetic-treated rats were tested on Days 1, 3, 7 and 15 of the treatment period (Fig. 6A).
Male Wistar strain rats weighing about 160–200 g were used for animal studies. […] Rats were provided with rodent diet and water ad libitum. […] The animals were allowed to drink 5% glucose solution overnight to prevent STZ-NA-induced hypoglycemia[82],[83]. The rats were considered as diabetic if their blood glucose levels were above 250 mg/dL on the 3rd day after STZ-NA injection. The rats were divided into four groups of six animals in each group. Control animals received normal saline (Group I). Diabetic rats received STZ-NA injection (Group II). […] The blood glucose level of each group was checked at 1, 3, 7 and 15 Day by withdrawing blood from tail vein of the animal using glucose meter (ACCu-Chek active, Roche, Diagnostics USA).
After pharmacological screening for antidiabetic activity, the animals were subjected to overnight fasting and blood was collected from retro-orbital region under light anaesthesia for performing various biochemical experiments. All the biochemical experiments were performed using commercially available kits. Total Hb was estimated by cyanomethaemoglobin method, while HbA1c was estimated from whole blood using commercially available kits following the manufacturer guidelines (ERBA Diagnostics Inc, Accurex Biomedical Pvt. Ltd., Coral clinical systems, India). TG concentration was determined by GPO-POD enzymatic-colorimetric method. TC level was measured by the end point, CHOD-POD colorimetric methods. HDL-C was assayed by the method reported earlier. VLDL-C and LDL-C in plasma were calculated by the Friedewald formula: VLDL-C = TG/5; LDL-C = TC-(HDL-C + VLDL-C)[88]. Levels of serum urea, uric acid, and creatinine were measured using commercially available kits[89].
Rats were sacrificed under light anesthesia using diethylether at the end of the pharmacological and biochemical studies. […] Then, the tissue was sliced out into sections of 5 µm thickness by a rotator microtome and stained with hematoxylin-eosin. Obtained sections were examined by a Leica DME microscope, and representative photomicrographs were taken by a 7.1 megapixel Canon Power Shot S70 digital camera.

SMILES	IC50 [1] [µM]	EC50 (human PPARγ (hPPARγ)) [µM]	Emax (human PPARγ (hPPARγ))	blood glucose levels ([2]; 36 mg/kg oral, 15 days, vs diabetic control rats)	Hb levels ([2]; 36 mg/kg oral, 15 days, vs disease control (STZ + NA))	histological changes of pancreas (islets, β-cells) ([2]; 36 mg/kg, light microscopy, hematoxylin-eosin)
CN(CCOc1ccc(CC2SC(=O)NC2=O)cc1)c1ccccn1 (stereo not shown) [Rosiglitazone, reference compound]	662 ± 18					
CC(=O)NCCOC(=O)[C@H](Oc1cccc(C(F)(F)F)c1)c1ccc(Cl)cc1 [metaglidasen]		~10	around 10%			
CCc1ccc(CCOc2ccc(CC3SC(=O)NC3=O)cc2)nc1 (stereo not shown) [Pioglitazone, reference compound]	> 1000			significantly reduced	significant increase	restored to near normal
